From patent US20110212083A1, “ROLE OF SOLUBLE UPAR IN THE PATHOGENESIS OF PROTEINURIC KIDNEY DISEASE” (University of Miami Office of Technology Transfer, priority 2008, published 2011)
Entries after “also recorded” stand apart in the source; their conditions may differ.

How the values were obtained:
αvβ3 integrin = settings: in vivo; cited from earlier work
57BL/6 and Plaur−/− mice = test: right kidney cross-transplantation with LPS treatment (TEM and uPAR immunostaining); assay type: in vivo, mouse; settings: for foot process effacement (TEM): LPS 10 mg/kg i.p., 24 h
Experimental: Right kidney cross-transplantation: Six 57BL/6 female mice and 6 Plaur^−/− female mice in the same age and body weight ranges (7-8 weeks, 15-18 g) were randomly recruited into this study. The right kidney from Plaur^−/− mice were transplanted into 57BL/6 mice at the right side and vice versa. Kidney transplantation was performed as previously described (Coffman, T. et al, J. Immunol. 151, 425-435 (1993); Han, W. R., Murray-Segal, L. J. and Mottram, P. L. Microsurgery. 19, 272-274 (1999)). After recovery from surgery, mice were randomly treated with LPS at 10 mg/kg body weight, i.p. or same amount of PBS for control. 24 h after LPS injection, mice were sacrificed, and kidney was taken out for further analysis.
Transmission electron microscopy (TEM): TEM was performed according to the standard protocols (Sever, S. et al. J. Clin. Invest. 117, 2095-2104 (2007)).
To further confirm the role of suPAR in proteinuria development and kidney disease, cross-kidney transplantation was performed and the effect of endogenous soluble form of uPAR was examined. The right kidney was excised from normal 57BL/6, and transplanted into Plaur^−/− mice on the right side and vice versa (FIG. 3A). Mice were randomly chosen to receive lipopolysaccharide (LPS) to induce proteinuria or PBS for control after recovery from surgery. […] For the PBS treated 57BL/6 mice however, foot process effacement was not remarkable in either transplanted Plaur^−/− kidney or native 57BL/6 kidney (FIG. 1E). […] In contrast, foot process effacement was not remarkable in either native Plaur^−/− kidney or in the transplanted 57BL/6 kidney of PBS controlled mice (FIG. 1F). […] In order to determine whether suPAR is responsible for the phenomena, the sections were immunostained from both native and transplanted kidney with uPAR antibody.

| Compound | proteinuria caused by uPAR-β3-integrin signaling (αvβ3 integrin) | foot process effacement (TEM) (57BL/6 and Plaur−/− mice; 57BL/6 mice, native 57BL/6 kidney) | foot process effacement (TEM) (57BL/6 and Plaur−/− mice; 57BL/6 mice, transplanted Plaur−/− kidney) | podocyte uPAR expression (immunostaining) (57BL/6 and Plaur−/− mice; LPS treated 57BL/6 mice, native 57BL/6 kidney) | podocyte uPAR expression or deposit (immunostaining) (57BL/6 and Plaur−/− mice; LPS treated 57BL/6 mice, transplanted Plaur−/− kidney) | uPAR in podocytes (immunostaining) (57BL/6 and Plaur−/− mice; LPS treated Plaur−/− mice, native Plaur−/− kidney) | uPAR expression (immunostaining) (57BL/6 and Plaur−/− mice; LPS treated Plaur−/− mice, transplanted 57BL/6 kidney) | foot process effacement (TEM) (57BL/6 and Plaur−/− mice; Plaur−/− mice, native Plaur−/− kidney) | foot process effacement (TEM) (57BL/6 and Plaur−/− mice; Plaur−/− mice, transplanted 57BL/6 kidney) |
| --- | --- | --- | --- | --- | --- | --- | --- | --- | --- |
| CC(C)[C@@H]1NC(=O)[C@@H](Cc2ccccc2)NC(=O)[C@H](CC(=O)O)NC(=O)CNC(=O)[C@H](CCCN=C(N)N)NC1=O [cycloRGDfV] | prevented and reduced; also recorded: blocked | – | – | – | – | – | – | – | – |
| lipopolysaccharide [LPS] | – | significant foot process effacement | massive foot process effacement | increased podocyte uPAR expression | clear uPAR expression or deposit | not any uPAR | increased uPAR expression | not | readily observed |
